In patent US20230139883A1, “Peptides for Inducing Differentiation” (Shimadzu Corporation, priority 2020, published 2023):

Tested on: FGFR1
Assay: Phage display selection against FGFR1 with Miseq analysis of the bound phages
Type: binding
Settings: for 1 nM Num. of reads: phage library after panning Round 5, bound to 1 nM FGFR1; for 10 nM Num. of reads: phage library after panning Round 5, bound to 10 nM FGFR1; for 100 nM Num. of reads: phage library after panning Round 5, bound to 100 nM FGFR1; for 1 nM Ranking / 10 nM Ranking / 100 nM Ranking: rank by number of reads; for 1 nM Ranking: 1 nM FGFR1; for 10 nM Ranking: 10 nM FGFR1; for 100 nM Ranking: 100 nM FGFR1
Procedure: The collected phage library was mixed with 100 nM of FGFR3 solution and allowed to react overnight at 4° C. (Table 5: Panning Round 1). After the reaction, the binding phages were captured by magnetic beads modified with protein A, and washed three times with PBS-T, followed by eluting the bound phages with Gly-HCl (pH 2.0). After neutralizing with 2M Tris, the phages were infected to E. coli. After 4 hours of incubation, helper phages were added, and the E. coli were allowed to produce phages overnight. Next, phage solution was prepared from the culture supernatant. The prepared phage solution was mixed with FGFR3 solution and allowed to react overnight at 4° C. (Table 5: Panning Round 2). After the reaction, the bound phages were eluted. Phage solution prepared in the same way was mixed with FGFR3 solution and allowed to react at 4° C. for 1 hour (Table 5: Panning Round 3). After the reaction, the bound phages were eluted. This operation was repeated two more times, and after Panning Round 5, the bound phages were eluted. Note that as the rounds proceeded, the number of washes with PBS-T was increased. (Table 5). The titer of the Output phage in each round was also determined. The titer of phage was determined from the number of colonies obtained by incubating the E. coli TG1 strain contacted with the phage at 37° C. overnight. As shown in FIG. 3<Input phage (Round 5)>, the eluted phage library after panning was subjected to Human IgG Fc-immobilized plate, and negative selection was performed by collecting unbound phages. The phage library was then acted to FGFR1 prepared to concentrations of 100 nM, 10 nM, and 1 nM. Bound phages were then collected. The phagemid DNA of the collected phages was extracted, samples were prepared according to Illumina's protocol for Miseq, and a comprehensive analysis of the phagemid DNA was performed. Among the sequences obtained, 23 sequences with high incidence rates were selected (Table 6).

Sequence | 1 nM Num. of reads | 10 nM Num. of reads | 100 nM Num. of reads | 1 nM Ranking | 10 nM Ranking | 100 nM Ranking
CAAELAALEAELAALEGGMATDHMNRGKLYRLKNKLHFLKIAC [100n781] | 352 | 262 | 228 | 26 | 48 | 40
CAAELAALEAELAALEGADAFTLGSAGKLMMLKEKLNHLKHAC [100n1348] | 349 | 473 | 346 | 27 | 30 | 30
CAAELAALEAELAALEGDCLAGGCSFGKLLNLKQKLIRLKRAC [100n108] | 873 | 1155 | 464 | 13 | 14 | 22
CAAELAALEAELAALEGNTANDPTASGKLKYLKYKLSNLKHAC [100n606] | 872 | 894 | 609 | 14 | 18 | 18
CAAELAALEAELAALEGLGGFFNLRTGKLDELKMKLQHLKQAC [100n84] | 795 | 854 | 563 | 15 | 20 | 19
CAAELAALEAELAALEGINAVPMSGRGKLYSLKNKLHYLKNAC [100n12] | 273 | 267 | 258 | 30 | 46 | 34
CAAELAALEAELAALEGGRFSGLQEKGKLYGLKNKLHYLKRAC [100n368] | 2077 | 2177 | 1695 | 8 | 9 | 11
CAAELAALEAELAALEGVPALVGQEGGKLVLLKWKLWRLKNAC [100n36] | 483 | 677 | 398 | 24 | 24 | 28
CAAELAALEAELAALEGVGRLYHMASGKLDRLKGKLMVLKYAC [100n82] | 6561 | 7109 | 4896 | 3 | 4 | 5
CAAELAALEAELAALEGVKELTLGTVGKLMSLKYKLWSLKQAC [100n83] | 4939 | 6581 | 3079 | 5 | 5 | 6
CAAELAALEAELAALEGSVALGNKAGGKLRLLKLKLELLKDAC [100n1314] | 260 | 406 | 238 | 34 | 31 | 38
CAAELAALEAELAALEGPHPRHHHPHGKLKKLKRKLYKLKQAC [100n222] | 525 | 776 | 541 | 22 | 22 | 20
CAAELAALEAELAALEGMSNHTLGSIGKLMLLKDKLESLKEAC [100n1074] | 756 | 688 | 333 | 16 | 23 | 31
CAAELAALEAELAALEGAVGDKRKSKGKLMMLKQKLELLKGAC [100n85] | 6769 | 9230 | 7482 | 2 | 2 | 2
CAAELAALDAELAALEGARLGKMSKVGKLIKLKEKLQNLKMAC [100n182] | 1428 | 1468 | 937 | 10 | 12 | 13
CAAELAALEAELAALEGAKKAEEGQKGKLYRLKNKLHYLKSAC [100n423] | 561 | 867 | 439 | 21 | 19 | 26
CAAELAALEAELAALEGGDEVPHVGGGKLKMLKYQLNNLKHAC [100n417] | 721 | 1010 | 762 | 18 | 15 | 14
CAAELAALEAELAALEGQTFMNPHRLGKLDKLKLKLVHLKRAC [100n8] | 4243 | 3717 | 1974 | 7 | 7 | 8
CAAELAALEAELAALEGSSMDHVAYTGKLRMLKFRLELLKGAC [100n1543] | 233 | 276 | 216 | 37 | 43 | 43
CAAELAALEAELAALEGREPSGAMGSGKLKRLKYKLQNLKHAC [100n1793] | 493 | 493 | 395 | 23 | 29 | 29
CAAELAALEAELAALEGAWVEQVNRRGKLDGLKMKLQRLKLAC [100n51] | 704 | 1000 | 649 | 19 | 16 | 16
CAAELAALEAELAALEGFGGVVYSCEWQAVYLKYKLMRLKQAC [100n17] | 8443 | 10095 | 8500 | 1 | 1 | 1
